Assay results: the CheMixHub ionic liquid set

Assay: xn = mol fraction of the nth substance listed

CCCC[n+]1ccn(C)c1.[Br-] + O=C1O[C@H]([C@@H](O)CO)C(O)=C1O + O
viscosity [mPa·s], 100 kPa
Conditions	293.15 K	298.15 K	303.15 K	308.15 K	313.15 K	318.15 K
x2 = 0, x1 = 0.0009002	1.033	0.918	0.823	0.753	0.676	0.618
x2 = 0, x1 = 0.001799	1.057	0.938	0.84	0.758	0.689	0.631
x2 = 0, x1 = 0.002696	1.069	1	0.905	0.795	0.749	0.68
x2 = 0.0003657, x1 = 0.0008999	1.04	0.925	0.831	0.761	0.684	0.626
x2 = 0.0003693, x1 = 0.001798	1.064	0.945	0.847	0.765	0.696	0.638
x2 = 0.000373, x1 = 0.002695	1.073	1.005	0.912	0.802	0.756	0.687
x2 = 0.0007293, x1 = 0.0008995	1.048	0.933	0.839	0.769	0.691	0.633
x2 = 0.0007366, x1 = 0.001797	1.071	0.952	0.854	0.772	0.703	0.645
x2 = 0.0007401, x1 = 0.002694	1.08	1.013	0.919	0.808	0.763	0.695
x2 = 0.001093, x1 = 0.0008992	1.055	0.94	0.845	0.775	0.697	0.639
x2 = 0.0011, x1 = 0.001797	1.081	0.961	0.862	0.78	0.71	0.651
x2 = 0.001111, x1 = 0.002693	1.088	1.02	0.927	0.816	0.77	0.701
x2 = 0.001456, x1 = 0.0008989	1.063	0.947	0.851	0.781	0.703	0.644
x2 = 0.001467, x1 = 0.001796	1.09	0.969	0.869	0.786	0.716	0.657
x2 = 0.001485, x1 = 0.002692	1.097	1.029	0.935	0.823	0.777	0.708
x2 = 0.001819, x1 = 0.0008986	1.071	0.954	0.859	0.788	0.71	0.65
x2 = 0.001833, x1 = 0.001795	1.097	0.976	0.876	0.793	0.723	0.664
x2 = 0.001851, x1 = 0.002691	1.106	1.038	0.941	0.83	0.785	0.715
x2 = 0.002183, x1 = 0.0008982	1.079	0.961	0.865	0.795	0.717	0.657
x2 = 0.002201, x1 = 0.001795	1.104	0.982	0.882	0.798	0.728	0.669
x2 = 0.002221, x1 = 0.00269	1.114	1.045	0.948	0.837	0.792	0.722

CCCC[N+](CCCC)(CCCC)CCCC.[Cl-] + O=C(O)[C@@H]1CCCN1
100 kPa
Conditions	electrical conductivity, 313.15 K [S/m]	electrical conductivity, 323.15 K [S/m]	electrical conductivity, 333.15 K [S/m]	electrical conductivity, 343.15 K [S/m]	electrical conductivity, 353.15 K [S/m]	viscosity, 313.15 K [mPa·s]	viscosity, 323.15 K [mPa·s]	viscosity, 333.15 K [mPa·s]	viscosity, 343.15 K [mPa·s]	viscosity, 353.15 K [mPa·s]
x1 = 0.875	0.0343	0.0411	0.065	0.0965	0.127	389	172	97.5	54.2	32.1
x1 = 0.8889	0.0137	0.0249	0.0423	0.0735	0.108	901	306	171	85	53.8
x1 = 0.9	0.0446	0.0612	0.0869	0.11	0.142	1051	534	233	131	77.3

CCCC[n+]1ccn(C)c1.[Br-] + O=C(O)c1cccnc1 + O
viscosity [mPa·s], 100 kPa
Conditions	293.15 K	298.15 K	303.15 K	308.15 K	313.15 K	318.15 K
x2 = 0, x1 = 0.0009002	1.033	0.918	0.823	0.753	0.676	0.619
x2 = 0, x1 = 0.001799	1.057	0.938	0.84	0.758	0.689	0.631
x2 = 0, x1 = 0.002696	1.069	1	0.905	0.795	0.749	0.68

CC[n+]1ccn(C)c1.[Cl-] + O=C[C@H](O)[C@@H](O)[C@H](O)[C@H](O)CO
373 K, 100 kPa
Conditions	viscosity [mPa·s]
x2 = 0	36
x2 = 0.0419	66

CC[n+]1ccn(C)c1.[Cl-] + O=C[C@H](O)[C@@H](O)[C@H](O)[C@H](O)CO + CC#N
373 K, 100 kPa
Conditions	viscosity [mPa·s]
x2 = 0, x1 = 0.359	3
x2 = 0.002991, x1 = 0.3578	3
x2 = 0.01533, x1 = 0.3535	4
x2 = 0.0316, x1 = 0.3476	5
x2 = 0.04909, x1 = 0.3413	6

CC[P+](CC)(CC)CCOC.O=S(=O)([N-]S(=O)(=O)C(F)(F)F)C(F)(F)F + O=S(=O)([N-]S(=O)(=O)C(F)(F)F)C(F)(F)F.[Li+]
101.33 kPa
Conditions	electrical conductivity, 298.2 K [S/m]	electrical conductivity, 312.2 K [S/m]	electrical conductivity, 361.3 K [S/m]	viscosity, 298.2 K [mPa·s]	viscosity, 355.3 K [mPa·s]
x2 = 0.25	1	–	–	170	17
x2 = 0.39	–	0.8	1.5	–	–

CCCC[N+](CCCC)(CCCC)CCCC.[Cl-] + OCC(O)CO
100 kPa, x1 = 0.333
Conditions	electrical conductivity [S/m]	viscosity [mPa·s]
293.15 K	0.0303	870
303.15 K	0.0527	500
313.15 K	0.0885	298
323.15 K	0.144	184
333.15 K	0.228	117

CC[n+]1ccn(C)c1.[Cl-] + OCC(O)CO
Conditions	viscosity [mPa·s]
303.15 K, 100 kPa, x1 = 0.333	126.9
313.15 K, 101 kPa, x1 = 0.667	135.5

[Cl-].c1ccc(C[P+](c2ccccc2)(c2ccccc2)c2ccccc2)cc1 + OCC(O)CO
101 kPa, x2 = 0.9412
Conditions	electrical conductivity [S/m]	viscosity [mPa·s]
298.1 K	0.006977	–
307.07 K	–	654
322.36 K	–	238
322.96 K	0.03314	–
332.98 K	0.04535	–
338.06 K	0.05407	–
343.13 K	0.0593	–
348.08 K	0.075	–

[Cl-].c1ccc(C[P+](c2ccccc2)(c2ccccc2)c2ccccc2)cc1 + OCCO
Conditions	electrical conductivity [S/m]	viscosity [mPa·s]
293.15 K, 101 kPa, x1 = 0.083	0.191	60.6
303.15 K, 101 kPa, x1 = 0.08333	–	68.3
313.15 K, 101 kPa, x1 = 0.083	0.298	32.2
313.15 K, 101 kPa, x1 = 0.08333	–	54.2
323.15 K, 100 kPa, x1 = 0.0833	–	38.5
323.15 K, 101 kPa, x1 = 0.08333	–	41.8
333.15 K, 101 kPa, x1 = 0.08333	–	33
338.15 K, 101.3 kPa, x2 = 0.75	0.02	86
343.15 K, 100 kPa, x1 = 0.0833	–	24.6
343.15 K, 101 kPa, x1 = 0.08333	–	24.2
353.15 K, 101 kPa, x1 = 0.08333	–	20.7

[Cl-].c1ccc(C[P+](c2ccccc2)(c2ccccc2)c2ccccc2)cc1 + OCCOCCO
101 kPa, x2 = 0.875
Conditions	electrical conductivity [S/m]	viscosity [mPa·s]
313.15 K	0.0935	64.2
353.15 K	0.212	17.1

CCCC[N+](CCCC)(CCCC)CCCC.[Cl-] + OCCOCCOCCO
Conditions	electrical conductivity, 293.15 K [S/m]	electrical conductivity, 303.15 K [S/m]	electrical conductivity, 313.15 K [S/m]	electrical conductivity, 323.15 K [S/m]	electrical conductivity, 333.15 K [S/m]	viscosity, 293.15 K [mPa·s]	viscosity, 303.15 K [mPa·s]	viscosity, 313.15 K [mPa·s]	viscosity, 323.15 K [mPa·s]	viscosity, 333.15 K [mPa·s]
100 kPa, x1 = 0.1667	0.0683	0.099	0.141	0.196	0.268	126	82.6	55.6	38.4	27.1
100 kPa, x1 = 0.333	0.049	0.0739	0.109	0.156	0.219	277	179	119	81.4	56.8
101 kPa, x2 = 0.25	–	–	–	–	–	–	–	–	910	–

CC[n+]1ccn(C)c1.[Cl-] + OCCOCCOCCOCCO
viscosity [mPa·s], 101.3 kPa
Conditions	298.15 K	303.15 K	313.15 K	323.15 K	333.15 K
x2 = 0.3333	360	266	168	115	83
x2 = 0.5	138	114	83.8	62.7	48.7

CCCC[N+](CCCC)(CCCC)CCCC.[Cl-] + OC[C@@H](O)[C@@H](O)[C@H](O)[C@@H](O)CO + O
100 kPa, x1 = 0.1428, x2 = 0.1428
Conditions	electrical conductivity [S/m]	viscosity [mPa·s]
293.15 K	0.121	390
303.15 K	0.189	201
313.15 K	0.285	107
323.15 K	0.42	59.8
333.15 K	0.605	34.5

CCCC[N+](CCCC)(CCCC)CCCC.[Cl-] + Oc1ccccc1
Conditions	viscosity [mPa·s]
323.15 K, 100 kPa, x1 = 0.167	37.2

CCCC[n+]1ccn(C)c1.[Br-] + [Cl-].[Li+] + O
298.15 K, 100 kPa
Conditions	viscosity [mPa·s]
x2 = 0, x3 = 0.9487	2.21
x2 = 0.008492, x3 = 0.9402	2.41
x2 = 0.01695, x3 = 0.9318	2.56
x2 = 0.02496, x3 = 0.9237	2.73
x2 = 0.02656, x3 = 0.9221	2.81
x2 = 0.03322, x3 = 0.9155	3
x2 = 0.0408, x3 = 0.9079	3.21
